Legend:
[1] = system: carrageenan-induced hemorrhoids; assay: Antihaemorrhoidal activity, anorectum:body weight ratio model; format: in vivo; conditions: rats, p.o.; for effect against carrageenan-induced hemorrhoids: chronic administration (7 days)
Description: The antihaemorrhoidal activity of the Euphorbia prostrata extract was assessed and compared with reference drug, diosmin using anorectum:body weight ratio model in rats (modified method of Jia et al., 2000).
FIG. 1: Effect of Euphorbia prostrata extract (E.p. extract) against carrageenan-induced hemorrhoids in rats.
FIG. 2: Effect of individual component of Euphorbia prostrata extract (E.p. extract) against carrageenan-induced hemorrhoids in rats.

[2] = system: acetic acid-induced chemonociception; assay: Acetic acid-induced writhing; format: in vivo; conditions: mice; for antinociceptive effect in the writhing test: p.o.
[3] = system: oedematous response to croton oil; conditions: Della Loggia et al., 1986; cited from earlier work
[4] = system: COX-2; conditions: lipopolysaccharide activated RAW 264.7 macrophages (Liang et al., 1999); cited from earlier work
[5] = system: iNOS (inducible nitric oxide synthase); conditions: lipopolysaccharide activated RAW 264.7 macrophages (Liang et al., 1999); cited from earlier work
[6] = system: rat liver microsomes; conditions: CCl4 induced peroxidation; rat liver microsomes (Cholbi et al., 1991); cited from earlier work
[7] = system: histamine release; conditions: in vivo (Bhargava and Westfall, 1969); cited from earlier work
[8] = system: murine macrophages; conditions: murine macrophages (Xagorari et al., 2001); cited from earlier work
[9] = system: carrageenan-induced hyperalgesia; assay: Carrageenan-induced hyperalgesia, paw pressure test; format: in vivo; conditions: rats; 2 mg/kg
Excerpt: FIG. 7: Effect of Euphorbia prostrata extract (E.p. extract) against carageenan-induced hyperalgesia in rats.

[10] = In vitro superoxide radical scavenging activity; format: biochemical; conditions: 25 μg
Excerpt: FIG. 9: In vitro superoxide radical scavenging activity of Euphorbia prostrata extract (E.p. extract).

In the case of O=c1cc(-c2ccc(O)cc2)oc2cc(O[C@@H]3O[C@H](CO)[C@@H](O)[C@H](O)[C@H]3O)cc(O)c12 [apigenin-7-glucoside], the “effect against carrageenan-induced hemorrhoids” value ([1]; 0.478 mg/kg) is listed as “showed effect”, the “antinociceptive effect in the writhing test” value ([2]; 0.5, 1.0, and 2.0 mg/kg) is listed as “dose-dependent antinociceptive effect” and the “oedematous response to croton oil” value [3] is listed as “dose dependent inhibition”.

For O=c1cc(-c2ccc(O)cc2)oc2cc(O)cc(O)c12 [apigenin], the “inhibition of transcriptional activation of COX-2” value [4] is given as “most potent inhibitor”, the “inhibition of transcriptional activation of iNOS” value [5] is given as “most potent inhibitor” and the antiperoxidative activity [6] is given as “significant antiperoxidative activity”.

With COc1ccc(-c2cc(=O)c3c(O)cc(O[C@@H]4O[C@H](CO[C@@H]5O[C@@H](C)[C@H](O)[C@@H](O)[C@H]5O)[C@@H](O)[C@H](O)[C@H]4O)cc3o2)cc1O [diosmin, reference compound] the “anorectal body weight ratio” value ([1]; 50 mg/kg, 7 days) was “significantly decreased” and the “histopathological examination of the anorectum” value ([1]; 50 mg/kg, 7 days) was “intact mucosal layer with prominent mucosal cells and mild leukocyte migration”.

For O=c1oc2c(O)c(O)cc3c(=O)oc4c(O)c(O)cc1c4c23 [ellagic acid], the “effect against carrageenan-induced hemorrhoids” value ([1]; 1.204 mg/kg) is listed as “showed effect” and the “histamine release mediated by histamine liberators (compound 48/80, dextran and polymyxin B sulfate)” value [7] is listed as “suppress histamine release”.

For O=C(O)c1cc(O)c(O)c(O)c1 [gallic acid], the “effect against carrageenan-induced hemorrhoids” value ([1]; 1.123 mg/kg) was “showed effect”.

In the case of O=c1cc(-c2ccc(O)c(O)c2)oc2cc(O[C@@H]3O[C@H](CO)[C@H](O)[C@H](O)[C@H]3O)cc(O)c12 [luteolin-7-galactoside], the “oedematous response to croton oil” value [3] is given as “dose dependent inhibition”.

In the case of O=c1cc(-c2ccc(O)c(O)c2)oc2cc(O[C@@H]3O[C@H](CO)[C@@H](O)[C@H](O)[C@H]3O)cc(O)c12 [luteolin-7-glucoside], the “antinociceptive effect in the writhing test” value ([2]; 0.25, 0.5, and 1.0 mg/kg) is reported as “dose-dependent antinociceptive effect”.

For O=c1cc(-c2ccc(O)c(O)c2)oc2cc(O)cc(O)c12 [luteolin], the antiperoxidative activity [6] is listed as “significant antiperoxidative activity” and the “protein tyrosin phosphorylation, nuclear factor-κB mediated gene expression and pro-inflammatory cytokine production” value [8] is listed as “inhibits”.

For CS(=O)(=O)Nc1ccc([N+](=O)[O-])cc1Oc1ccccc1 [nimesulide, reference compound], the pain threshold ([2]; 2 mg/kg) was “significantly increased” and the paw withdrawal latencies [9] was “increased”.

In the case of tocopherol, the “superoxide radical scavenging activity” value [10] is reported as 25.54%.
